Data from patent publication US11899019B2, “Method for predicting efficacy of anti-PD-1 antibody or anti-PD-L1 antibody therapy, method for evaluating cancer grade, and method for enhancing efficacy of anti-PD-1 antibody or anti-PD-L1 antibody therapy” (J-Pharma Co., Ltd., priority 2017, dated 2024).
Where “and” joins values, the source holds several entries; their conditions need not be identical. Equal entries are not always repeated. Marks after values point to notes of the source that are not given here.

Assays:
LAT1 mRNA [1] = test: siRNA knockdown, LAT1 mRNA by quantitative PCR in H520 cells; type: cell-based, human; details: 48 hours after siRNA introduction, relative value with control siRNA = 1, n = 4
Description: (§1) The suppression of mRNA expression of PD-L1 or LAT1 at the transcriptional level was attempted using siRNA. WiDr cells (derived from human colon-adenocarcinoma), SKN cells (human uterine leiomyosarcoma cells), and H520 cells (human pulmonary squamous cell carcinoma cells) were seeded in culture dishes. siRNA that suppresses the mRNA expression of PD-L1, siRNA that suppresses the mRNA expression of LAT1, or a control siRNA was introduced into cells. As the siRNA, Silencer (registered trademark) Select siRNAs of the Ambion (registered trademark) series from Thermo Fisher Scientific K.K. Specifically, siPD-L1 #2 (siRNA ID: s26548) set forth in SEQ ID NOs: 1 and 2 was used as the siRNA for suppressing the mRNA expression of PD-L1, siLAT1 #3 (siRNA ID: s15653) set forth in SEQ ID NOs: 3 and 4 was used as the siRNA for suppressing the mRNA expression of LAT1, and Silencer Select Negative control #2 (Cat #: 390847) was used as the control siRNA. Cells were collected 48 hours later, when the suppression effect on expression tends to be prominent, and mRNA expression levels of LAT1 and PD-L1 per cell were analyzed by quantitative PCR.
(§2) In Table 7, the mRNA expression levels per cell are expressed as relative values, with the mRNA expression level in the cells, to which the control siRNA was introduced, being 1. […]

PD-L1 mRNA [2] = test: siRNA knockdown, PD-L1 mRNA by quantitative PCR in SKN cells; type: cell-based, human; details: 48 hours after siRNA introduction, relative value with control siRNA = 1, n = 4
Description: as §1, §2

PD-L1 mRNA [3] = test: siRNA knockdown, PD-L1 mRNA by quantitative PCR in WiDr cells; type: cell-based, human; details: 48 hours after siRNA introduction, relative value with control siRNA = 1, n = 4
Description: as §1, §2

LAT1 mRNA [4] = test: siRNA knockdown, LAT1 mRNA by quantitative PCR in WiDr cells; type: cell-based, human; details: 48 hours after siRNA introduction, relative value with control siRNA = 1, n = 4
Description: as §1, §2

PD-L1 mRNA [5] = test: siRNA knockdown, PD-L1 mRNA by quantitative PCR in H520 cells; type: cell-based, human; details: 48 hours after siRNA introduction, relative value with control siRNA = 1, n = 4
Description: as §1, §2

LAT1 mRNA [6] = test: siRNA knockdown, LAT1 mRNA by quantitative PCR in SKN cells; type: cell-based, human; details: 48 hours after siRNA introduction, relative value with control siRNA = 1, n = 4
Description: as §1, §2

PD-L1 mRNA [7] = test: Change of PD-L1 expression level by JPH2O3, quantitative PCR in OST cells; type: cell-based, human; details: 30 μM, 24 hours treatment
Description: (§3) The LAT1 activity was suppressed using an inhibitor JPH2O3 instead of the gene suppression using siRNA, and it was examined whether results similar to Test Example 5 would be obtained. JPH2O3 is O-(5-amino-2-phenylbenzoxazol-7-yl)methyl-3,5-dichloro-L-tyrosine. HuccT1 cells (derived from human bile duct cancer) and OST cells (derived from human fibrosarcoma of bone) were seeded in culture dishes. After treatment with 30 μM of JPH2O3 (LAT1 selective inhibitor) for 24 hours, cells were collected and mRNA expression levels of PD-L1 were analyzed by quantitative PCR.
(§4) In Table 8, the mRNA expression levels per cell are expressed as relative values, with the expression level of the control that was not treated with JPH2O3 being 1. In both HuccT1 cells and OST cells, the expression of PD-L1 was increased. […] Moreover, since the inhibition of LAT1 increased the expression of PD-L1, it is considered that the LAT1 inhibition therapy can increase the expression level of PD-L1 as well as reduce the expression level or activity of LAT1 in patients. In other words, it is considered that the expression level of PD-L1 in patients can be brought close to those in patients of the P-predominance type by the LAT1 inhibition therapy.

PD-L1 mRNA [8] = test: Change of PD-L1 expression level by JPH2O3, quantitative PCR in HuccT1 cells; type: cell-based, human; details: 30 μM, 24 hours treatment
Description: as §3, §4

[9] = tested on: advanced non-small cell lung cancers (Stage III/IV); test: Response to nivolumab in non-small cell lung cancer patients, determined by CT in accordance with RECIST; type: in vivo, human
Description: Cancer tissues were collected from 21 patients with first line anticancer therapy resistant/relapsed advanced non-small cell lung cancers (Stage III/IV) incorporated in this examination, and the expressions of LAT1 and PD-L1 were examined by immunohistochemistry using an anti-LAT1 antibody and an anti-PD-L1 antibody. Tumors were determined as positive when the cell membrane of the tumors, together with PD-L1 and LAT1, were stained. Tumors having 10% or more of PD-L1-positive cells were defined as having high PD-L1 expression, and tumors having 25% or more of LAT1-positive cells were defined as having high LAT1 expression.
The response rate was evaluated in accordance with the international criteria for which the tumor sizes are measured by CT and the tumors are classified into response, progression, or stable. The response refers to cases where 30% or more decrease is observed in the longer axis of the tumor after the administration of the agent. The progression refers to cases where the 20% or more increase is observed in the longer axis of the tumor after the administration of the agent. The stable refers to cases where the shrinkage of the tumor is insufficient to classify it as response and the increase of the tumor in comparison with the minimum sum of the longest axis after the start of the therapy is insufficient to classify it as progression.

[10] = relative value with untreated control = 1, n = 4
[11] = relative value with untreated control = 1, n = 4, listed as JPH2O3
[12] = PD-L1 high expression group (8 patients), RECIST
[13] = PD-L1 low expression group (13 patients), RECIST
[14] = high LAT1 expression group (9 patients), RECIST
[15] = low LAT1 expression group (12 patients), RECIST
[16] = single patient of FIG. 8, high PD-L1 and low LAT1 expression

**Q.** Which “LAT1 mRNA expression level” value (LAT1 mRNA [1]) does the source give for “si-LAT1: Silencer Select siRNA set forth in SEQ ID NOs: 3 and 4, suppressing the mRNA expression of LAT1 (chain 1 UGUCCAAUCUAGAUCCCAATT; chain 2 UUGGGAUCUAGAUUGGACACA; chemistry not given here)” here?
**A.** 0.11

**Q.** And the “PD-L1 mRNA expression level” value (PD-L1 mRNA [2])?
**A.** 1.04***

**Q.** And the “PD-L1 mRNA expression level” value (PD-L1 mRNA [3])?
**A.** 1.82***

**Q.** What about the “LAT1 mRNA expression level” value (LAT1 mRNA [4]) of the same compound?
**A.** 0.11

**Q.** And the “PD-L1 mRNA expression level” value (PD-L1 mRNA [5])?
**A.** 0.82***

**Q.** What about the “LAT1 mRNA expression level” value (LAT1 mRNA [6]) of the same compound?
**A.** 0.06

**Q.** With `Nc1cc(COc2c(Cl)cc(C[C@H](N)C(=O)O)cc2Cl)c2oc(-c3ccccc3)nc2c1` [JPH203, O-(5-amino-2-phenylbenzoxazol-7-yl)methyl-3,5-dichloro-L-tyrosine] as the compound, how does the “PD-L1 mRNA expression level” value (PD-L1 mRNA [7]; [10]) read?
**A.** 2.79*

**Q.** And the “PD-L1 mRNA expression level” value (PD-L1 mRNA [7]; [11])?
**A.** increased

**Q.** And the “PD-L1 mRNA expression level” value (PD-L1 mRNA [8]; [10])?
**A.** 12.26**

**Q.** What about the “PD-L1 mRNA expression level” value (PD-L1 mRNA [8]; [11]) of the same compound?
**A.** increased

**Q.** nivolumab was tested. Which “patients exhibited a response” value [9, 12] did it give?
**A.** 4 patients

**Q.** What about the patients exhibited progression [9, 12] of the same compound?
**A.** 1 patient

**Q.** And the “patients exhibited a response” value [9, 13]?
**A.** 3 patients

**Q.** And the patients exhibited progression [9, 13]?
**A.** 7 patients

**Q.** What about the “patients exhibited a response” value ([9]; all 21 patients) of the same compound?
**A.** 7 patients

**Q.** What about the “patients exhibited no response” value ([9]; all 21 patients) of the same compound?
**A.** 14 patients

**Q.** What about the patients exhibited progression ([9]; all 21 patients) of the same compound?
**A.** 7 patients

**Q.** What about the response rate ([9]; all 21 patients) of the same compound?
**A.** 33%

**Q.** And the “patients exhibited a response” value [9, 14]?
**A.** 1 patient

**Q.** And the patients exhibited progression [9, 14]?
**A.** 6 patients and 5 patients

**Q.** What about the “patients exhibited a response” value [9, 15] of the same compound?
**A.** 4 patients and 6 patients

**Q.** And the patients exhibited progression [9, 15]?
**A.** 3 patients and 2 patients

**Q.** And the “outcome of nivolumab treatment” value [9, 16]?
**A.** responded

**Q.** What about the progression-free survival [9, 16] of the same compound?
**A.** ≥ 10 months

**Q.** And the “outcome of nivolumab treatment” value ([9]; single patient of FIG. 9, high LAT1 and low PD-L1 expression)?
**A.** progression

**Q.** What about the “outcome of nivolumab treatment” value ([9]; single patient of FIG. 10, high PD-L1 and high LAT1 expression) of the same compound?
**A.** progression

**Q.** What does the source list for “si-PD-L1: Silencer Select siRNA set forth in SEQ ID NOs: 1 and 2, suppressing the mRNA expression of PD-L1 (chain 1 GGACUCACUUGGUAAUUCUTT; chain 2 AGAAUUACCAAGUGAGUCCTT; chemistry not given here)”?
**A.** LAT1 mRNA expression level (LAT1 mRNA [1]): 2.29***; PD-L1 mRNA expression level (PD-L1 mRNA [2]): 0.24; PD-L1 mRNA expression level (PD-L1 mRNA [3]): 0.46; LAT1 mRNA expression level (LAT1 mRNA [4]): 5.01***; PD-L1 mRNA expression level (PD-L1 mRNA [5]): 0.37; LAT1 mRNA expression level (LAT1 mRNA [6]): 1.52***
